EP3623369A1, “NOVEL MORPHOLINYL AMINE COMPOUNDS FOR THE TREATMENT OF AUTOIMMUNE DISEASE” (F. Hoffmann-La Roche AG, priority 2018, dated 2020)

Molecular target: T1, human TLR8 (Homo sapiens, UniProt Q9NR97)
T1 sequence (Q9NR97 27-1041): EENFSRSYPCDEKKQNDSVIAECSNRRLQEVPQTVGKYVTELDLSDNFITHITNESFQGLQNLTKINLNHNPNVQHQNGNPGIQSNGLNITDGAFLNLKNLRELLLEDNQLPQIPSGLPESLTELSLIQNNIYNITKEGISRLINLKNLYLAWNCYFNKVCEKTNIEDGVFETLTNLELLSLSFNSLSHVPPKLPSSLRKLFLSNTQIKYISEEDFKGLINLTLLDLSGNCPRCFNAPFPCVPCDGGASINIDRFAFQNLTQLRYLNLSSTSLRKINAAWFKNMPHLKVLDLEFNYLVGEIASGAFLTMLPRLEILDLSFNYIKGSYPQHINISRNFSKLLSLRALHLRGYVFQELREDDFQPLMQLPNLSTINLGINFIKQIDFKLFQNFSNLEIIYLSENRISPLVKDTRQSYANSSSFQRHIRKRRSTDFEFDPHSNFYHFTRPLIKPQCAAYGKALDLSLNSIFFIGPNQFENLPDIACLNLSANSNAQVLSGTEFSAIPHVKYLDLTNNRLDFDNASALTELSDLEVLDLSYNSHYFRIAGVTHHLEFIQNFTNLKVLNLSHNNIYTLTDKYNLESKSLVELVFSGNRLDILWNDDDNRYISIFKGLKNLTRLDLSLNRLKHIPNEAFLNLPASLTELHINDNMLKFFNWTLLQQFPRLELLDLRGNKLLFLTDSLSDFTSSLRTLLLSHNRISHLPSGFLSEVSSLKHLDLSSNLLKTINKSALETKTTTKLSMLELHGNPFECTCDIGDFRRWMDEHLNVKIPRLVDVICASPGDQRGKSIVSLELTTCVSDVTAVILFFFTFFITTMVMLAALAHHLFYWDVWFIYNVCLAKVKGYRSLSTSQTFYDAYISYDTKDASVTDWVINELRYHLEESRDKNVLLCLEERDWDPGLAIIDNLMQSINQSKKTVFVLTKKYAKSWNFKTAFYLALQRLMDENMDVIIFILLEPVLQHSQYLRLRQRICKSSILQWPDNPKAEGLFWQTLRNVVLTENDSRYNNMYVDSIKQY
Test: HEK293-Blue-hTLR-8 cells assay (SEAP reporter, R848 stimulation)
Type: cell-based
Details: HEK293-Blue-hTLR8 cells, R848, 20 hrs; 0.003 is the lowest tested concentration; read-out: HEK/hTLR8 IC50
Method: The following tests were carried out in order to determine the activity of the compounds of formula (I) or (Ia) in HEK293-Blue-hTLR-7/8/9 cells assay.
HEK293-Blue-hTLR-8 cells assay:
A stable HEK293-Blue-hTLR-8 cell line was purchased from InvivoGen (Cat.#: hkb-htlr8, San Diego, California, USA). These cells were originally designed for studying the stimulation of human TLR8 by monitoring the activation of NF-κB. A SEAP (secreted embryonic alkaline phosphatase) reporter gene was placed under the control of the IFN-β minimal promoter fused to five NF-κB and AP-1-binding sites. The SEAP was induced by activating NF-κB and AP-1 via stimulating HEK-Blue hTLR8 cells with TLR8 ligands. Therefore the reporter expression was declined by TLR8 antagonist under the stimulation of a ligand, such as R848, for incubation of 20 hrs. The cell culture supernatant SEAP reporter activity was determined using QUANTI-Blue™ kit (Cat.#: rep-qb1, Invivogen, San Diego, Ca, USA) at a wavelength of 640 nm, a detection medium that turns purple or blue in the presence of alkaline phosphatase.
HEK293-Blue-hTLR8 cells were incubated at a density of 250,000∼450,000 cells/mL in a volume of 170 µL in a 96-well plate in Dulbecco's Modified Eagle's medium (DMEM) containing 4.5 g/L glucose, 50 U/mL penicillin, […], […], 2 mM L-glutamine, 10% (v/v) heat-inactivated fetal bovine serum with addition of 20 µL test compound in a serial dilution in the presence of final DMSO at 1% and 10 µL of 60uM R848 in above DMEM, perform incubation under 37 °C in a CO2 incubator for 20 hrs. Then 20 µL of the supernatant from each well was incubated with 180 µL Quanti-blue substrate solution at 37°C for 2 hrs and the absorbance was read at 620∼655 nm using a spectrophotometer. The signalling pathway that TLR8 activation leads to downstream NF-κB activation has been widely accepted, and therefore similar reporter assay was modified for evaluating TLR8 antagonist.

| SMILES | IC50 [nM] |
| --- | --- |
| C[C@@H]1CN(c2ccc(C#N)n3nccc23)C[C@H](CN2CCc3cc(N4CCNCC4)ccc3C2)O1 [Example 10, 4-[(2R,6S)-2-methyl-6-[(6-piperazin-1-yl-3,4-dihydro-1H-isoquinolin-2-yl)methyl]morpholin-4-yl]pyrazolo[1,5-a]pyridine-7-carbonitrile] | 52 |
| C[C@@H]1CN(c2ccc(C#N)c3ncccc23)C[C@H](CN2Cc3cc(N4CCN(C)CC4)cc(F)c3C2)O1 [Example 69, 5-[(2S,6R)-2-[[4-fluoro-6-(4-methylpiperazin-1-yl)isoindolin-2-yl]methyl]-6-methyl-morpholin-4-yl]quinoline-8-carbonitrile] | < 3 |
| C[C@@H]1CN(c2ccc(C#N)c3ncccc23)C[C@H](CN2Cc3ccc(N4CC5(CCN5)C4)cc3C2)O1 [Example 55, 5-[(2S,6R)-2-[[5-(1,6-diazaspiro[3.3]heptan-6-yl)isoindolin-2-yl]methyl]-6-methyl-morpholin-4-yl]quinoline-8-carbonitrile] | 7 |
| C[C@@H]1CN(c2ccc3c(c2)CN(C[C@H]2CN(c4ccc(C#N)c5ncccc45)C[C@@H](C)O2)C3)CCN1 [Example 62, 5-[(2R,6S)-2-methyl-6-[[5-[(3R)-3-methylpiperazin-1-yl]isoindolin-2-yl]methyl]morpholin-4-yl] quinoline-8-carbonitrile] | 5 |
| C[C@@H]1CN(c2ccc(C#N)n3nccc23)C[C@H](CN2Cc3ccc(N4CCNCC4)cc3C2)O1 [Example 4, 4-[(2R,6S)-2-methyl-6-[(5-piperazin-1-ylisoindolin-2-yl)methyl]morpholin-4-yl]pyrazolo[1,5-a]pyridine-7-carbonitrile] | 57 |
| C[C@@H]1CN(c2ccc(C#N)c3nccnc23)C[C@H](CN2Cc3ccc(N4CCNCC4)cc3C2)O1 [Example 12, 8-[(2R,6S)-2-methyl-6-[(5-piperazin-1-ylisoindolin-2-yl)methyl]morpholin-4-yl]quinoxaline-5-carbonitrile] | < 3 |
| C[C@@H]1CN(c2ccc(C#N)c3nccnc23)C[C@H](CN2Cc3ccc(N4CC5COCC(C4)N5)cc3C2)O1 [Example 49, 8-[(2R,6S)-2-methyl-6-[[5-(3-oxa-7,9-diazabicyclo[3.3.1]nonan-7-yl)isoindolin-2-yl]methyl]morpholin-4-yl]quinoxaline-5-carbonitrile] | 14 |
| C[C@@H]1CN(c2ccc(C#N)c3ncccc23)C[C@H](CN2Cc3ccc(N4C5CCC4CNC5)cc3C2)O1 [Example 43, 5-[(2S,6R)-2-[[5-(3,8-diazabicyclo[3.2.1]octan-8-yl)isoindolin-2-yl]methyl]-6-methyl-morpholin-4-yl]quinoline-8-carbonitrile] | 12 |
| C[C@@H]1CN(c2ccc(Cl)c3nccnc23)C[C@H](CN2Cc3ccc(N4CCNCC4)cc3C2)O1 [Example 33, (2R,6S)-4-(8-chloroquinoxalin-5-yl)-2-methyl-6-[(5-piperazin-1-ylisoindolin-2-yl)methyl]morpholine] | 5 |
| C[C@@H]1CN(c2ccc(C#N)c3ncccc23)C[C@H](CNCc2ccc(N3CCNCC3)cc2)O1 [Example 86, 5-[(2R,6S)-2-methyl-6-[[(4-piperazin-1-ylphenyl)methylamino]methyl]morpholin-4-yl] quinoline-8-carbonitrile] | 26 |
| C[C@@H]1CN(c2ccc(C#N)c3nccnc23)C[C@H](CNCc2ccc(N3CCNCC3)cc2)O1 [Example 84, 8-[(2R,6S)-2-methyl-6-[[(4-piperazin-1-ylphenyl)methylamino]methyl]morpholin-4-yl]quinoxaline-5-carbonitrile] | 22 |
| CCOC(=O)C1CNCCN1c1ccc2c(c1)CN(C[C@H]1CN(c3ccc(C#N)c4ncccc34)C[C@@H](C)O1)C2 (stereo partly drawn) [Example 50, Ethyl 1-[2-[[(2S,6R)-4-(8-cyano-5-quinolyl)-6-methyl-morpholin-2-yl]methyl]isoindolin-5-yl] piperazine-2-carboxylate] | 33 |
| C[C@@H]1CN(c2ccc(C#N)n3nccc23)C[C@H](CNCc2ccc(N3CCNCC3)cc2)O1 [Example 16, 4-[(2R,6S)-2-methyl-6-[[(4-piperazin-1-ylphenyl)methylamino]methyl]morpholin-4-yl]pyrazolo[1,5-a]pyridine-7-carbonitrile] | 16 |
| C[C@@H]1CN(c2ccc(C#N)n3nccc23)C[C@H](CN2Cc3ccc(C4CCNC4)cc3C2)O1 (stereo partly drawn) [Example 9, 4-[(2R,6S)-2-methyl-6-[(5-pyrrolidin-3-ylisoindolin-2-yl)methyl]morpholin-4-yl]pyrazolo[1,5-a]pyridine-7-carbonitrile] | 90 |
| C[C@@H]1CN(c2ccc(C#N)c3nccnc23)C[C@H](CN2Cc3ccc(N4C5CCC4CNC5)cc3C2)O1 [Example 41, 8-[(2S,6R)-2-[[5-(3,8-diazabicyclo[3.2.1]octan-8-yl)isoindolin-2-yl]methyl]-6-methyl-morpholin-4-yl]quinoxaline-5-carbonitrile] | 9 |
| C[C@@H]1CN(c2ccc(Cl)c3ncccc23)C[C@H](CN2CCc3cc(N4CCNCC4)ccc3C2)O1 [Example 32, (2R,6S)-4-(8-chloro-5-quinolyl)-2-methyl-6-[(6-piperazin-1-yl-3,4-dihydro-1H-isoquinolin-2-yl)methyl]morpholine] | 17 |
| C[C@@H]1CN(c2ccc(C#N)c3ncccc23)C[C@H](CN2Cc3ccc(N4CCNCC4)nc3C2)O1 [Example 80, 5-[(2R,6S)-2-methyl-6-[(2-piperazin-1-yl-5,7-dihydropyrrolo[3,4-b]pyridin-6-yl)methyl]morpholin-4-yl]quinoline-8-carbonitrile] | < 3 |
| COC(=O)C1CN(c2ccc3c(c2)CN(C[C@H]2CN(c4ccc(C#N)c5ncccc45)C[C@@H](C)O2)C3)CCN1 (stereo partly drawn) [Example 67, Methyl 4-[2-[[(2S,6R)-4-(8-cyano-5-quinolyl)-6-methyl-morpholin-2-yl]methyl]isoindolin-5-yl] piperazine-2-carboxylate] | 36 |
| C[C@@H]1CN(c2ccc(C#N)n3ncc(F)c23)C[C@H](CN2CCc3cc(N4CCNCC4)ccc3C2)O1 [Example 14, 3-fluoro-4-[(2R,6S)-2-methyl-6-[(6-piperazin-1-yl-3,4-dihydro-1H-isoquinolin-2-yl)methyl]morpholin-4-yl]pyrazolo[1,5-a]pyridine-7-carbonitrile] | 29 |
| C[C@@H]1CN(c2ccc(C#N)c3nccnc23)C[C@H](CN2Cc3ccc(N4CCN5CCCCC5C4)cc3C2)O1 (stereo partly drawn) [Example 40, 8-[(2S,6R)-2-[[5-(1,3,4,6,7,8,9,9a-octahydropyrido[1,2-a]pyrazin-2-yl)isoindolin-2-yl]methyl]-6-methyl-morpholin-4-yl]quinoxaline-5-carbonitrile] | 4 |
| C[C@@H]1CN(c2ccc(C#N)c3ncccc23)C[C@H](CN2Cc3ccc(N4CCNC[C@H]4CO)cc3C2)O1 [Example 83, 5-[(2S,6R)-2-[[5-[(2S)-2-(hydroxymethyl)piperazin-1-yl]isoindolin-2-yl]methyl]-6-methyl-morpholin-4-yl]quinoline-8-carbonitrile] | 20 |
| C[C@@H]1CN(c2ccc(C#N)n3nccc23)C[C@H](CN2Cc3ccncc3C2)O1 [Example R2, 4-[(2S,6R)-2-(1,3-dihydropyrrolo[3,4-c]pyridin-2-ylmethy1)-6-methyl-morpholin-4-yl]pyrazolo[1,5-a]pyridine-7-carbonitrile, reference compound] | 784 |
